Numbers after ± are expanded uncertainties.
What was measured:
[1] = Crystal; DSC
[2] = Molar enthalpy of transition or fusion; settings: Crystal; DSC

With `CC1(C)CCC2=C(O1)c1ccccc1C(=O)C2=O` [3,4-dihydro-2,2-dimethyl-2H-naphtho[1,2-b]pyran-5,6-dione] as the compound, how does the Triple point temperature [1] read?
The Triple point temperature was 428.99 ± 1.9 K.

What about the “Molar enthalpy of transition or fusion” value [2] of the same compound?
The value was 5.86 ± 0.263 kcal/mol.

From the NIST ThermoML archive (doi:10.1016/j.fluid.2018.05.005)
